Reference: ChEMBL document CHEMBL1151376, “Inhibition of Mitochondrial Function in Termite Queen Ovary by Rabdosia Diterpenoids” (J Nat Prod, 1981)

Legend:
Assay type in all cases: functional
Settings in all cases: Female gonad
Macrotermes subhyalinus [1] = test: Effect on oxygen consumption in Macrotermes subhyalinus ovary mitochondria assessed as inhibition of state 3 respiration assessed oxygen atom per mg protein per min at 250 uM by polarographic analysis
Macrotermes subhyalinus [2] = test: Effect on oxygen consumption in Macrotermes subhyalinus ovary mitochondria assessed as inhibition of state 4 respiration assessed oxygen atom per mg protein per min at 250 uM by polarographic analysis
Macrotermes subhyalinus [3] = test: Effect on oxygen consumption in Macrotermes subhyalinus ovary mitochondria assessed as inhibition of state 4U respiration assessed oxygen atom per mg protein per min at 250 uM in presence of 2,4-dinitrophenol by polarographic analysis
Macrotermes subhyalinus [4] = test: Inhibition of oxidative phosphorylation in Macrotermes subhyalinus ovary mitochondria assessed as respiratory control ratio assessed oxygen atom per mg protein per min at 250 uM
Macrotermes subhyalinus [5] = test: Inhibition of oxidative phosphorylation in Macrotermes subhyalinus ovary mitochondria assessed as ADP/O ratio at 250 uM
Macrotermes subhyalinus [6] = test: Effect on phosphorylation rate in Macrotermes subhyalinus ovary mitochondria assessed as nmoles ATP synthesized per mg protein per min at 250 uM
Macrotermes subhyalinus [7] = test: Effect on oxygen consumption in Macrotermes subhyalinus ovary mitochondria assessed as inhibition of state 3 respiration assessed oxygen atom per mg protein per min at 100 uM by polarographic analysis
Macrotermes subhyalinus [8] = test: Effect on oxygen consumption in Macrotermes subhyalinus ovary mitochondria assessed as inhibition of state 4 respiration assessed oxygen atom per mg protein per min at 100 uM by polarographic analysis
Macrotermes subhyalinus [9] = test: Effect on oxygen consumption in Macrotermes subhyalinus ovary mitochondria assessed as inhibition of state 4U respiration assessed oxygen atom per mg protein per min at 100 uM in presence of 2,4-dinitrophenol by polarographic analysis
Macrotermes subhyalinus [10] = test: Inhibition of oxidative phosphorylation in Macrotermes subhyalinus ovary mitochondria assessed as respiratory control ratio assessed oxygen atom per mg protein per min at 100 uM
Macrotermes subhyalinus [11] = test: Inhibition of oxidative phosphorylation in Macrotermes subhyalinus ovary mitochondria assessed as ADP/O ratio at 100 uM
Macrotermes subhyalinus [12] = test: Effect on phosphorylation rate in Macrotermes subhyalinus ovary mitochondria assessed as nmoles ATP synthesized per mg protein per min at 100 uM

Work on `C=C1C(=O)[C@]23C[C@H]1C[C@@H](O)[C@H]2[C@@]12CO[C@@H](O)[C@@H]1C(C)(C)CC[C@@H]2OC3=O` yielded an Activity (Macrotermes subhyalinus [1]) of 94.8, an Activity (Macrotermes subhyalinus [2]) of 41.2 and an Activity (Macrotermes subhyalinus [3]) of 61.8. The Ratio (Macrotermes subhyalinus [4]) was 2.3, the Ratio (Macrotermes subhyalinus [5]) was 1.79 and the Activity (Macrotermes subhyalinus [6]) was 170.
`C=C1C(=O)[C@]23[C@H](O)[C@H]1CC[C@H]2[C@@]12CO[C@]3(O)[C@@H](O)[C@@H]1C(C)(C)CC[C@@H]2O` gave an Activity (Macrotermes subhyalinus [7]) of 118, an Activity (Macrotermes subhyalinus [8]) of 32.4 and an Activity (Macrotermes subhyalinus [9]) of 106. The Ratio (Macrotermes subhyalinus [10]) was 3.63, the Ratio (Macrotermes subhyalinus [11]) was 1.33 and the Activity (Macrotermes subhyalinus [12]) was 156.
`C=C1C(=O)[C@]23C[C@H]1C[C@H](O)[C@H]2[C@]1(COC(C)=O)[C@H](CCC(C)(C)[C@H]1C=O)OC3=O` gave an Activity (Macrotermes subhyalinus [7]) of 118, an Activity (Macrotermes subhyalinus [8]) of 44.2 and an Activity (Macrotermes subhyalinus [9]) of 41.2. The Ratio (Macrotermes subhyalinus [10]) was 2.66, the Ratio (Macrotermes subhyalinus [11]) was 1.03 and the Activity (Macrotermes subhyalinus [12]) was 121.
For `C=C1C(=O)[C@]23C[C@H]1CC[C@H]2[C@@]12CO[C@@H](O)[C@@H]1C(C)(C)[C@@H](O)C[C@@H]2OC3=O`, the Activity (Macrotermes subhyalinus [7]) was 115, the Activity (Macrotermes subhyalinus [8]) was 33.6 and the Activity (Macrotermes subhyalinus [9]) was 104. For the same compound, the Ratio (Macrotermes subhyalinus [10]) was 3.41, the Ratio (Macrotermes subhyalinus [11]) was 1.62 and the Activity (Macrotermes subhyalinus [12]) was 186.
